Test results published in patent US9463252B2, “Auristatin drug linker conjugates” (priority 2008, dated 2016).
≈ marks a conversion by molar mass, not a printed value. Non-standard residues stand in square brackets, D forms with d. Residues, ends and D or L forms follow the SMILES beside them. *: point of attachment. Dolaproine = CO[C@@H]([C@@H]1CCCN1)[C@@H](C)C(=O)O; Hexanoyl(6-maleimido) = O=C1C=CC(=O)N1CCCCCC(=O)*; Dil = CC[C@H](C)[C@H](NC)[C@@H](CC(=O)O)OC; NMeV = CN[C@H](C(=O)O)C(C)C

How the values were obtained:
HCT-116 (CD70−) = assay: Cytotoxicity of Auristatin-Peptide-h1F6 conjugates, CD70- control cell line; assay type: cell-based
Text: (§1) The conjugates contain approximately 4 drugs per antibody.

L428 [1] = assay: Cytotoxicity of Auristatin-Peptide-cAC10 conjugates on CD30+ cells; assay type: cell-based
Experimental: (§2) Following the procedure described in Example 57, Auristatin-Dipeptide-cAC10 antibody conjugates were evaluated on CD30+ positive cell lines, Karpas 299, L428 and L540cy. In addition, a control conjugate, cAC10-vc-PABC-MMAF, was used. […] The conjugates contain approximately 4 drugs per antibody.
(§3) Following the procedure described as Examples 57 and 58, the activities of Auristatin-Peptide-cAC10 conjugates were evaluated on CD30^+ cells, such as Karpas 299, L428, and L540cy. The activities of Auristatin-Peptide-hBU12 conjugates were evaluated on CD19^+ cells such as Ramos, SUDHL-4, and ARH-77. The activities of Auristatin-Peptide-anti-LIV-1 conjugates were evaluated on LIV-1 positive cell lines MCF-7 and SKOV-3. The activities of Auristatin-Peptide-BR96 conjugates were evaluated on Le^y positive cells H3396, RCA, and L2987. All conjugates contain approximately 4 drugs per antibody.

Karpas 299 = assay: as above; assay type: cell-based, human
Experimental: as §2, §3

L540cy = assay: as above; assay type: cell-based, human
Experimental: as §2, §3

L428 [2] = assay: Cytotoxicity of Auristatin-Peptide-h1F6 conjugates, resazurin assay; assay type: cell-based; details: for IC50 L428: ~4 drugs/Ab
Text: as §1

U251 = assay: as above; assay type: cell-based; details: Table 4, ~4 drugs/Ab
Text: as §1

Caki-1 = assay: as above; assay type: cell-based
Text: as §1

UMRC-3 = assay: as above; assay type: cell-based
Text: as §1

786-O = assay: as above; assay type: cell-based, human; details: for IC50 786-0: Table 4
Text: as §1

LP-1 = assay: as above; assay type: cell-based, human
Text: as §1

Caki-2 = assay: as above; assay type: cell-based; details: Table 5; h1F6 conjugates, ~4 drugs/Ab
Experimental: as §1
Following the procedure described as Examples 57 and 58, Auristatin-Peptide-h1F6 conjugates were evaluated on CD70^+ cell, such as 786-O, Caki-1, Caki-2, and L428. Conjugates contain approximately 4 drugs per antibody.

[3] = Tolerability (MTD) of conjugates in mice; assay type: in vivo, mouse; details: h1F6 conjugates; for tolerability at 100 mg/kg dose (in words): single dose 100 mg/kg
Experimental: The tolerability, measured as maximum tolerated dose (MTD), was determined in mice based on animals' weight loss after treatment. Animals were usually monitored for 14 days. A conjugate is considered to be tolerated at a determined dose if single iv treatment at such dose results in a transient weight loss of no more than 20% of initial body weight of animals and no other signs of toxicity are observed. […] AF-Met-(D)Lys and AF-Asn-(D)Lys conjugates were tolerated at doses as high as 100 mg/kg (FIG. 7). Corresponding conjugates of auristatins containing Methionine (AM) and Tryptophan (AW) at the C-terminal position of the drug were tolerated even better, up to 150 mg/kg (FIG. 8). […] Thus, the Auristatin-Dipeptide Drug Linkers provide ADCs with significant therapeutic window for therapeutic treatment (e.g., cancer).

Ramos = assay: Cytotoxicity of Auristatin-Peptide-hBU12 conjugates on CD19+ cells; assay type: cell-based; details: Table 11, ~4 drugs per antibody
Experimental: as §3

ARH-77 = assay: as above; assay type: cell-based; details: Table 11, ~4 drugs per antibody
Experimental: as §3

SUDHL-4 = assay: as above; assay type: cell-based; details: Table 11, ~4 drugs per antibody
Experimental: as §3

SKOV-3 = assay: Cytotoxicity of Auristatin-Peptide-anti-LIV-1 conjugates on LIV-1 positive cells; assay type: cell-based; details: Table 11, ~4 drugs per antibody
Experimental: as §3

MCF-7 = assay: as above; assay type: cell-based; details: Table 11, ~4 drugs per antibody
Experimental: as §3

L2987 = assay: Cytotoxicity of Auristatin-Peptide-BR96 conjugates on Le^y positive cells; assay type: cell-based; details: Table 11, ~4 drugs per antibody
Experimental: as §3

H3396 = assay: as above; assay type: cell-based; details: Table 11, ~4 drugs per antibody
Experimental: as §3

RCA = assay: as above; assay type: cell-based; details: Table 11, ~4 drugs per antibody
Experimental: as §3

[4] = Table 4, h1F6 conjugates, ~4 drugs/Ab
[5] = Table 5, h1F6 conjugates, ~4 drugs/Ab
[6] = Table 7, h1F6 conjugates, AF vs MMAF
[7] = Table 8, h1F6 conjugates, D vs L amino acid in second linker position
[8] = Table 9, h1F6-Drug(4) conjugates, mono- vs dipeptide linker
[9] = Table 11, ~4 drugs per antibody

| Compound | IC50 HCT-116 (CD70−) (HCT-116 (CD70−); Table 4, ~4 drugs/Ab) [ng/mL] | IC50 L428 (L428 [1]; Table 6, ~4 drugs/Ab) [ng/mL] | IC50 Karpas 299 (Karpas 299; Table 6, ~4 drugs/Ab) [ng/mL] | IC50 L540cy (L540cy; Table 6, ~4 drugs/Ab) [ng/mL] | IC50 L428 (L428 [2]; Table 4, h1F6 conjugates) [ng/mL] | IC50 U251 (U251) [ng/mL] | IC50 Caki-1 (Caki-1; [4]) [ng/mL] | IC50 UMRC-3 (UMRC-3; [4]) [ng/mL] | IC50 786-0 (786-O; h1F6 conjugates, ~4 drugs/Ab) [ng/mL] | IC50 LP-1 (LP-1; [4]) | other results |
| --- | --- | --- | --- | --- | --- | --- | --- | --- | --- | --- | --- |
| AF-β-alanine-(D)Aspartic Acid-diaminoethane-propionyl maleimide [AF-β-Ala-(D)Asp] | >1000 | 0.5 | 371 | 1.6 | 1096 | 93 | 1585 | 132 | 525 | >10,000 ng/mL |  |
| AF-Isoleucine-Proline-diaminoethane-propionyl maleimide [AF-Ile-Pro] | >1000 | 0.1 | 0.6 | 0.7 | 5 | 45 | 9 | 16 | 9.8 | 219 ng/mL |  |
| AF-Norvaline-(D)Aspartic Acid-diaminoethane-propionyl maleimide [AF-NorVal-(D)Asp] | >1000 | 0.09 | 0.5 | 0.6 | 24 | 78 | 12 | 25 | 28 | 537 ng/mL |  |
| AF-Tyrosine-(D)Aspartic Acid-diaminoethane-propionyl maleimide [AF-Tyr-(D)Asp] | >1000 | 0.06 | 0.6 | 0.7 | 27 | 72 | 9 | 32 | 24 | 398 ng/mL |  |
| vc-PABC-MMAF [reference compound] | >1000 | 0.5 | 3 | 3 | 7 | 10 | 3 | 14 | 7 | 22 ng/mL | IC50 HCT-116 (CD70−) (HCT-116 (CD70−); Table 5, ~4 drugs/Ab): >1000 ng/mL; IC50 L428 (L428 [2]; Table 5, h1F6 conjugates): 4 ng/mL; IC50 Caki-1 (Caki-1; [5]): 12 ng/mL; IC50 786-O (786-O; [5]): 5 ng/mL; IC50 Caki-2 (Caki-2): 11 ng/mL |
| AF-Phenylglycine-(D)Lysine-diaminoethane-propionyl maleimide [AF-PhenylGly-(D)Lys] | >1000 | 2 | 21 | 6 | 275 | 98 | 44 | 1096 | 339 | >10,000 ng/mL |  |
| AF-Asparagine-(D)Lysine-diaminoethane-propionyl maleimide [AF-Asn-(D)Lys] | >1000 | 0.1 | 44 | 4 | 24 | 60 | 10 | 28 | 19 | 417 ng/mL | tolerability at 100 mg/kg dose (in words) [3]: tolerated; IC50 L-428 (L428 [2]; [6]): 9 ng/mL; IC50 L-428 (L428 [2]; [7]): 9 ng/mL; IC50 L-428 (L428 [2]; [8]): 9 ng/mL; IC50 Caki-1 (Caki-1; [6]): 6 ng/mL; IC50 Caki-1 (Caki-1; [7]): 6 ng/mL; IC50 Caki-1 (Caki-1; [8]): 6 ng/mL; IC50 UMRC-3 (UMRC-3; [6]): 32 ng/mL; IC50 UMRC-3 (UMRC-3; [7]): 32 ng/mL; IC50 UMRC-3 (UMRC-3; [8]): 32 ng/mL; IC50 786-O (786-O; [6]): 10 ng/mL; IC50 786-O (786-O; [7]): 10 ng/mL; IC50 786-O (786-O; [8]): 10 ng/mL; IC50 LP-1 (LP-1; [6]): 479 ng/mL; IC50 LP-1 (LP-1; [7]): 479 ng/mL; IC50 LP-1 (LP-1; [8]): 479 ng/mL |
| AF-Methionine-(D)Lysine-diaminoethane-propionyl maleimide [AF-Met-(D)Lys] | >1000 | 1.5 | 2 | 3 | 1698 | 98 | 25 | 132 | 55 | >10,000 ng/mL | IC50 L-428 (L428 [2]; [6]): 158 ng/mL; IC50 L-428 (L428 [2]; [7]): 158 ng/mL; IC50 L-428 (L428 [2]; [8]): 158 ng/mL; IC50 Caki-1 (Caki-1; [6]): 9 ng/mL; IC50 Caki-1 (Caki-1; [7]): 9 ng/mL; IC50 Caki-1 (Caki-1; [8]): 9 ng/mL; IC50 UMRC-3 (UMRC-3; [6]): 182 ng/mL; IC50 UMRC-3 (UMRC-3; [7]): 182 ng/mL; IC50 UMRC-3 (UMRC-3; [8]): 182 ng/mL; IC50 786-O (786-O; [6]): 12 ng/mL; IC50 786-O (786-O; [7]): 12 ng/mL; IC50 786-O (786-O; [8]): 12 ng/mL; IC50 LP-1 (LP-1; [6]): >1000 ng/mL; IC50 LP-1 (LP-1; [7]): >1000 ng/mL; IC50 LP-1 (LP-1; [8]): >1000 ng/mL |
| AF-Asparagine-diaminoethane-propionyl maleimide [AF-Asn] |  |  |  |  |  |  |  |  |  |  | tolerability at 50 mg/kg dose (in words) ([3]; single dose 50 mg/kg, FIG. 15): toxic; IC50 L-428 (L428 [2]; [8]): 9 ng/mL; IC50 Caki-1 (Caki-1; [8]): 6 ng/mL; IC50 UMRC-3 (UMRC-3; [8]): 28 ng/mL; IC50 786-O (786-O; [8]): 10 ng/mL; IC50 LP-1 (LP-1; [8]): 209 ng/mL |
| AF-Trimethyllysine-Proline-diaminoethane-propionyl-maleimide [AF-Me3Lys-Pro] | >1000 | 0.09 | 0.6 | 0.8 | 24 | 78 | 11 | 30 | 20 | 298 ng/mL |  |
| CC[C@H](C)[C@@H]([C@@H](CC(=O)N1CCC[C@H]1[C@H](OC)[C@@H](C)C(=O)N[C@@H](Cc1ccccc1)C(=O)O)OC)N(C)C(=O)[C@@H](NC(=O)[C@H](C(C)C)N(C)C(=O)CCCCCN1C(=O)C=CC1=O)C(C)C [MC-MMAP, Maleimidocaproyl-monomethylauristatin F, reference compound] ({Hexanoyl(6-maleimido)}-[NMeV]V[Dil][Dolaproine]F-OH) |  |  |  |  |  |  |  |  |  |  | IC50 Ramos (Ramos): 7 ng/mL (≈ 0.00757 µM); IC50 ARH-77 (ARH-77): 255 ng/mL (≈ 0.276 µM); IC50 SUDHL-4 (SUDHL-4): ~10,000 ng/mL; IC50 SKOV-3 (SKOV-3): 2450 ng/mL (≈ 2.65 µM); IC50 MCF-7 (MCF-7): 3 ng/mL (≈ 0.00324 µM); IC50 L428 (L428 [1]; [9]): 1 ng/mL (≈ 0.00108 µM); IC50 Karpas 299 (Karpas 299; [9]): 3 ng/mL (≈ 0.00324 µM); IC50 L540cy (L540cy; [9]): 7 ng/mL (≈ 0.00757 µM); IC50 L2987 (L2987): 626 ng/mL (≈ 0.677 µM); IC50 H3396 (H3396): 42 ng/mL (≈ 0.0454 µM); IC50 RCA (RCA): 7400 ng/mL (≈ 8 µM) |
| MMAF-Asparagine-(D)Lysine-diaminoethane-propionyl maleimide [MMAF-Asn-(D)Lys] |  |  |  |  |  |  |  |  |  |  | tolerability at 100 mg/kg dose (in words) [3]: animal loss; IC50 L-428 (L428 [2]; [6]): 7 ng/mL; IC50 Caki-1 (Caki-1; [6]): 7 ng/mL; IC50 UMRC-3 (UMRC-3; [6]): 19 ng/mL; IC50 786-O (786-O; [6]): 9 ng/mL; IC50 LP-1 (LP-1; [6]): 110 ng/mL |
